Assays:
[1] = system: MDA-MB231 human breast tumor xenografts; experiment: Tumor growth study, MDA-MB231 breast tumor xenografts in athymic mice; type: in vivo; settings: 200 mg/kg intratumoral once daily for 8 days, vs 10% ethanol vehicle group
Description: FIGS. (13A), (13B1–13B2) illustrates the effects of tempo on the growth of human breast tumor xenografts in athymic mice. 13A. Tempo (200 mg/kg) was administered intratumorally once daily for a total of 8 days (*). Control group was treated simultaneously with an equal volume of ethanol (10%). Experiment was terminated when the control tumor volumes exceeded the recommended tumor burden. Each point represents mean q S.E. (n=4). […] (13B1–13B2). Representative tumor-bearing mice. Mice were treated with 10% ethanol (13B1) or tempo (13B2) as explained above.
MDA-MB231 cells (1×10^6) were inoculated subcutaneously in the right flank of 4–6 week-old female athymic mice. Tumor growth was monitored biweekly. Mice bearing tumor volumes in the range of 80–100 mm^3 were randomly selected for treatment. Tempo treatment was initiated (50 mg/kg–200 mg/kg, intratumoral, once daily, for a total of 8 days), and tumor volumes were measured for a total 25 days from the start of treatment.

[2] = system: bovine aortic endothelial cells; experiment: Apoptotic cell death by bisbenzamide trihydrochloride/Hoechst-33258 staining; type: cell-based; settings: 5 mM
[3] = system: LNCaP cells; experiment: Light and transmission electron microscopy of LNCaP cells; type: cell-based, human
Description: LNCaP cells ([…]) were seeded in 25 cm2 tissue culture flasks in RPMI medium containing 10% BCS overnight, followed by change to RPMI medium containing 5% BCS stimulation with 0.1% ethanol (control, 11A1, 11B1) or tempo (2.5 mM, 11A2, 11B2) for indicated times.
12A1, untreated, 4,000×; 12A2, a portion of the cell shown in 12A1, 20,000×; 12B1, 0.1% ethanol, 24 hr, 4,000×; 12B2, a portion of the cell shown in 12B1, 20,000×; 12C1, 5 mM tempo, 24 hr, 4,000×; 12C2, a portion of the cell shown in 12C1, […]; 12D, 5 mM tempo, 24 hr, a portion of another cell, 20,000×. M, mitrochondria; G, golgi apparatus; RER, rough endoplasmic reticulum; Cy, cytoplasm; N, nucleus; Arrow in panel C2 indicates swelling in the nuclear membrane.
LNCaP cells were treated with tempo as described in legend to FIG. 2. Following treatment, monolayer cells were washed three times with PBS, and fixed in 2.5% glutaraldehyde/3% paraformaldehyde in PBS. After fixation, the cell monolayer was washed in PBS. The cells were collected by gentle scraping using a rubber policeman, and centrifuged. The pellet was embedded in 1% agarose to facilitate handling. Post-fixation was performed in 1% osmium tetroxide in distilled water for 1 hr, followed by washing three times in distilled water, enbloc staining with 2% uranyl acetate for 30 min in dark, and washing three times in distilled water. […]

[4] = Apoptosis assay (annexin V-FITC/propidium iodide flow cytometry), serum-free; settings: human
Description: (§1) FIGS. (7A1–7A3), (7B1–7B2), (7C1–7C3), (7D1–7D2), (7E1–7E3), (7F1–7F2). […] Cells were grown in serum-free medium overnight in T-25 flasks and treated with tempol (10 mM) or tempo (10 mM) for various times, trypsinized, and then resuspended in 200 ul 1× binding buffer as described in experimental procedures. The cell suspension was double-stained with annexin V-FITC and propidium iodide and analyzed by flow cytometry. Background signal was determined by comparison with double-stained, single-stained, or unstained control cells. (7A1–7A3), (7C1–7C3), and (7E1–7E3) are cytograms showing a relative distribution of viable (V), apoptotic (A), and necrotic (N) cells at 2 h following tempol or tempo treatment of MDA-MB 231 cells (A), PCI-04A cells (C), and PC-3 cells (E). (7B1–7B3), (7D1–7D2), and (7F1–7F2) are time course analyses of MDA-MB 231 cells (B), PCT-04A cells (D), and PC-3 cells (F). 100,000 cells were analyzed at each time point in triplicate (B) or quadruplicate (D and F). Solid bars, 1% ethanol, striped bars, 10 mM tempol, empty bars, 10 mM tempo. […] Data shown are representative from three to four independent experiments. (7B1–7B2), Time course analysis of MDA-MB 231 cells undergoing apoptosis (annexin V-FITC staining) (7B1), or necrosis (propidium iodide staining) (7B2). Values shown are mean±s.d. of triplicate determinations per time point in each treatment category, and representative of three to four independent experiments. […] (7D1–7D2), Time course analysis of PCI-04A cells undergoing apoptosis (annexin V-FITC staining) (7D1), or necrosis (propidium iodide staining) (7D2). Values shown are mean±s.d. of quadruplicate determinations per time point in each treatment category. […] (7F1–7F2), Time course analysis of PC-3 cells undergoing apoptosis (annexin V-FITC staining) (7F1), or necrosis (propidium iodide staining) (7F2). Values shown are mean±s.d. of quadruplicate determinations per time point in each treatment category. Control/C, cells treated with 1% ethanol for 2 h.
Apoptosis Assay—ApoAlert Annexin V apoptosis detection system (Clontech Lab Inc., Palo Alto, Calif.) was used to measure the relative distribution of apoptotic and necrotic cells. Briefly, cells were seeded at a density of 1×10^6 cells per 25 cm^2 tissue culture flask in medium containing 10% FBS overnight, followed by washing twice in serum-free medium. Cells were maintained overnight in serum-free medium and exposed to tempol (10 mM) or tempo (10 mM) for various times. […] The intensity of the dye uptake by cells was detected using FACStar plus Flow Cytometer (Becton Dickerson, Lincoln Park, N.J.), and data were analyzed using Reproman True Facts software (Seattle, Wash.). […]

[5] = Apoptosis assay (annexin V-FITC/propidium iodide flow cytometry); settings: human
Description: as §1
(§2) Apoptosis Assay—ApoAlert Annexin V apoptosis detection system (Clontech Lab Inc., Palo Alto, Calif.) was used to measure the relative distribution of apoptotic and necrotic cells. Briefly, cells were seeded at a density of 1×10^6 cells per 25 cm^2 tissue culture flask in medium containing 10% FBS overnight, followed by washing twice in serum-free medium. Cells were maintained overnight in serum-free medium and exposed to tempol (10 mM) or tempo (10 mM) for various times. This was followed by rinsing twice with serum-free medium prior to trypsinization, dilution in two volumes of serum-free medium, and centrifugation at 10,000× g. The cell pellet was washed once with PBS and resuspended in 200 ul of 1× binding buffer. The cell suspension was double-labeled with fluorescein isothiocyanate (FITC)-labeled annexin V (10 ul) and propidium iodide (PI) (10 ul) according to the manufacturer's instructions. Unlabeled cells or untreated cells labeled with either FITC-annexin V or PI, or double-labeled served as internal controls for the background signal. The intensity of the dye uptake by cells was detected using FACStar plus Flow Cytometer (Becton Dickerson, Lincoln Park, N.J.), and data were analyzed using Reproman True Facts software (Seattle, Wash.). Viable cells were FITC−/PI−, apoptotic cells were FITC+/PI−, and necrotic cells were FITC+/PI+.

[6] = previous in vitro studies, cited from earlier work
[7] = Apoptosis assay (annexin V-FITC/propidium iodide flow cytometry); settings: human; remark: listed apart in the source
Description: as §1, §2

Compound | tumor growth rate [1] | apoptotic cell death ([2]; 4 h) | apoptotic cell death ([2]; 8 h) | cell morphology at the light microscopic level ([3]; 2.5 mM) | cells with pronounced vacuolation throughout the cytoplasm ([3]; electron microscopy, 5 mM, 24 hr) | viability at 2 h, 10 mM [4] | viability at 2 h, 10 mM [5] | protection factor ([6]; 100 mM, radioprotection) | concentration required to provide radioprotection [6] | viability at 2 h, 10 mM [7]
CC1(C)CCCC(C)(C)N1[O] [tempo, 2,2,6,6-tetramethylpiperidine-N-oxyl] | significant decline in tumor growth rate | 3.97±0.33% | 38.85±1.69% | distinct change in cell morphology from spindle shaped, highly refractile appearance to a more flattened appearance | more than 90% |  |  |  |  | 
CC1(C)CC(O)CC(C)(C)N1[O] [tempol, 4-hydroxy-tempo, reference compound] |  |  |  |  |  | 95.8% | 89.8% | 2.2 | 5 to 10 mM | 92.3%

— US7074807B2, “Compositions and methods for inducing cell death” (Georgetown University, priority 1998, dated 2006)
